What was measured:
Conditions in all cases: exposure time: 72 h
E13 [1] = patient-derived glioblastoma stem cells of classical subtype; assay: surviving fraction (nuclei count normalised to DMSO); higher = more cells surviving (less toxic)
E21 [2] = patient-derived glioblastoma stem cells of mesenchymal subtype; assay: as above
E28 [3] = patient-derived glioblastoma stem cells of classical subtype; assay: as above
E31 [4] = patient-derived glioblastoma stem cells of proneural subtype; assay: as above
E34 [5] = patient-derived glioblastoma stem cells of proneural subtype; assay: as above
E57 [6] = patient-derived glioblastoma stem cells of mesenchymal subtype; assay: as above
FT3469 [7] = normal neural stem cell line; assay: as above
E13 [8] = assay: phenotypic distance (Euclidean, principal components) from DMSO controls (arbitrary units); higher = stronger morphological change
E21 [9] = assay: as above
E28 [10] = assay: as above
E31 [11] = assay: as above
E34 [12] = assay: as above
E57 [13] = assay: as above
FT3469 [14] = assay: as above
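For phenotypic distance (Euclidean, principal components) from DMSO controls in this document: cell Painting imaging in 384-well plates, CellProfiler features reduced to at least 20 principal components, Euclidean distance versus same-plate DMSO vehicle wells (0.1% v/v), median over six images per well.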
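For surviving fraction (nuclei count normalised to DMSO) in this document: nuclei counted by high-content imaging of Hoechst-stained cells in laminin-coated 384-well plates, relative to 0.1% DMSO vehicle wells, with staurosporine as cell-death control.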

OC[C@H]1NC[C@H](O)[C@@H](O)[C@@H]1O [1-Deoxynojirimycin]
Conditions	phenotypic distance	surviving fraction
E13 [1], 4.1 nM	–	0.97
E13 [1], 12.3 nM	–	0.945
E13 [1], 37 nM	–	0.8513
E13 [1], 111.1 nM	–	0.99
E13 [1], 333.3 nM	–	1.01
E13 [1], 1000 nM	–	1.01
E13 [1], 3000 nM	–	0.963
E13 [8], 4.1 nM	0.633	–
E13 [8], 12.3 nM	0.606	–
E13 [8], 37 nM	0.865	–
E13 [8], 111.1 nM	0.487	–
E13 [8], 333.3 nM	0.742	–
E13 [8], 1000 nM	0.501	–
E13 [8], 3000 nM	0.63	–
E21 [2], 4.1 nM	–	0.994
E21 [2], 12.3 nM	–	1.02
E21 [2], 37 nM	–	0.9516
E21 [2], 111.1 nM	–	0.977
E21 [2], 333.3 nM	–	1.04
E21 [2], 1000 nM	–	0.995
E21 [2], 3000 nM	–	0.914
E21 [9], 4.1 nM	0.765	–
E21 [9], 12.3 nM	0.361	–
E21 [9], 37 nM	0.681	–
E21 [9], 111.1 nM	0.62	–
E21 [9], 333.3 nM	0.677	–
E21 [9], 1000 nM	0.652	–
E21 [9], 3000 nM	0.534	–
E28 [3], 4.1 nM	–	1.02
E28 [3], 12.3 nM	–	1.01
E28 [3], 37 nM	–	1.009
E28 [3], 111.1 nM	–	1.05
E28 [3], 333.3 nM	–	1.04
E28 [3], 1000 nM	–	0.997
E28 [3], 3000 nM	–	1.02
E28 [10], 4.1 nM	1.27	–
E28 [10], 12.3 nM	1.73	–
E28 [10], 37 nM	0.489	–
E28 [10], 111.1 nM	0.561	–
E28 [10], 333.3 nM	0.769	–
E28 [10], 1000 nM	0.642	–
E28 [10], 3000 nM	0.664	–
E31 [4], 4.1 nM	–	0.951
E31 [4], 12.3 nM	–	0.95
E31 [4], 37 nM	–	0.979
E31 [4], 111.1 nM	–	0.918
E31 [4], 333.3 nM	–	0.988
E31 [4], 1000 nM	–	1.03
E31 [4], 3000 nM	–	0.988
E31 [11], 4.1 nM	0.644	–
E31 [11], 12.3 nM	0.558	–
E31 [11], 37 nM	0.579	–
E31 [11], 111.1 nM	0.597	–
E31 [11], 333.3 nM	0.552	–
E31 [11], 1000 nM	0.479	–
E31 [11], 3000 nM	0.614	–
E34 [5], 4.1 nM	–	1.02
E34 [5], 12.3 nM	–	0.878
E34 [5], 37 nM	–	0.9719
E34 [5], 111.1 nM	–	0.948
E34 [5], 333.3 nM	–	0.937
E34 [5], 1000 nM	–	0.997
E34 [5], 3000 nM	–	1.02
E34 [12], 4.1 nM	1.35	–
E34 [12], 12.3 nM	0.664	–
E34 [12], 37 nM	0.60231	–
E34 [12], 111.1 nM	0.433	–
E34 [12], 333.3 nM	0.758	–
E34 [12], 1000 nM	0.619	–
E34 [12], 3000 nM	0.541	–
E57 [6], 4.1 nM	–	0.9939
E57 [6], 12.3 nM	–	0.961
E57 [6], 37 nM	–	0.936
E57 [6], 111.1 nM	–	0.955
E57 [6], 333.3 nM	–	1.03
E57 [6], 1000 nM	–	0.978
E57 [6], 3000 nM	–	0.9675
E57 [13], 4.1 nM	0.636	–
E57 [13], 12.3 nM	0.609	–
E57 [13], 37 nM	0.696	–
E57 [13], 111.1 nM	0.505	–
E57 [13], 333.3 nM	0.518	–
E57 [13], 1000 nM	0.442	–
E57 [13], 3000 nM	0.63	–
FT3469 [7], 4.1 nM	–	0.965
FT3469 [7], 12.3 nM	–	0.951
FT3469 [7], 37 nM	–	0.953
FT3469 [7], 111.1 nM	–	1.02
FT3469 [7], 333.3 nM	–	0.889
FT3469 [7], 1000 nM	–	1.04
FT3469 [7], 3000 nM	–	0.9
FT3469 [14], 4.1 nM	0.939	–
FT3469 [14], 12.3 nM	0.685	–
FT3469 [14], 37 nM	0.554	–
FT3469 [14], 111.1 nM	0.511	–
FT3469 [14], 333.3 nM	0.634	–
FT3469 [14], 1000 nM	0.682	–
FT3469 [14], 3000 nM	0.673	–
